Results on 14 molecules are retold here after patent US9655838B2, “Antimicrobial compositions comprising essential oil combinations” (priority 2013, dated 2017).

Data set [1] has as its system A. viscosus. The data set can be described thus: Determination of MIC of individual essential oils (broth microdilution, O.D. at 610 nm). It counts as cell-based, A. viscosus ATCC 43146. The settings on record: for MIC: Actinomyces viscosus. The method, then: Minimum inhibitory concentration (MIC) is assessed as follows: A 96-well microtiter plate is inoculated with 100 μl of TSB (Tryptic Soy Broth) media in each well. Stock solutions of the active are prepared as required (w/v basis) in percent. The different stock solutions (>1%) are used to achieve the final MIC concentration of the actives. The positive control (Triclosan) is prepared as a 0.1% stock solution. Each active is diluted 1:10 using sterile TSB. 100 μl of the stock solution is added in the first column for the actives and the controls. Transfer 100 μl of the solution from the first column to the next, mix and repeat the transfer to serially dilute 2-fold across the plate. The last 100 μl is discarded. Prepare 0.2-0.3 O.D. activated culture of A. viscosus ATCC 43146 grown in TSB overnight at 37° C. Add 100 μl of the adjusted bacterial culture to each well. Incubate the plates for 24 hours at 37° C. Determine the growth by measuring the O.D. at 610 nm. The data is transferred to an Excel spreadsheet for comparison of the O.D. values. The concentration higher than the lowest concentration with large increment in O.D. is taken as the MIC. Depending on the value obtained the MIC is repeated using higher or lower concentrations of the stock solution. This gives the closest value of the concentration determined by serial dilution at which the microorganism is inhibited (MIC).
On the technique in general: Broth dilution looks for growth in wells or tubes with falling amounts of substance.

The conditions of data set [2]: cited from earlier work.
[3] abbreviates: individual essential oils against A. viscosus, 24 hours at 37° C.
The mark [4] stands for this setting: Table 3, essential oil alone, read-out: Individual MIC (concentration of each essential oil alone necessary to produce the same effect).
[5] abbreviates: individual essential oils against A. viscosus, 24 hours at 37° C, read-out: MIC value (ppm).

Where two headings read alike, the source gives them in different places.

As to `[O]=[Zn]` [Zinc oxide], in data set [1] (setting [3]), the “MIC value (ppm)” value is 625 ppm.
Consider `Cc1ccc(C(C)C)c(O)c1` [Thymol (98% pure), Thymol], for which the MIC in data set [1] (setting [4]) and in data set [1] (setting [5]) was 900 µg/mL throughout.
For the molecule `Cc1cc(O)ccc1C(C)C` [IPMP (99.8% pure)], in data set [1] (setting [3]), the “MIC value (ppm)” value is 160 ppm.
Consider `C=CCc1ccc(O)c(OC)c1` [Eugenol], for which the MIC in data set [1] (setting [5]) stood at 2000 µg/mL.
α-(±)-bisabolol [Syn. Bisabolol]: in data set [1] (Table 3, essential oil alone), the “Individual MIC (concentration of each essential oil alone necessary to produce the same effect)” value is 125 ppm. For the same molecule, the “MIC value (ppm)” value in data set [1] (setting [3]) is recorded as 125 ppm.
As to `CCCc1ccc(O)c(OC)c1` [Dihydro-eugenol], in data set [1] (setting [3]), the “MIC value (ppm)” value is given as 500 ppm.
On to `COC(=O)c1ccccc1O` [Methyl salicylate], for which, in data set [1] (setting [5]), the MIC was 1000 µg/mL.
As for `O=C([O-])CC(O)(CC(=O)[O-])C(=O)[O-].O=C([O-])CC(O)(CC(=O)[O-])C(=O)[O-].[Zn+2].[Zn+2].[Zn+2]` [Zinc citrate], the “MIC value (ppm)” value in data set [1] (setting [3]) is given as 160 ppm.
On to `OCc1ccccc1` [Benzyl alcohol], for which the MIC in data set [1] (setting [5]) came to 700 µg/mL.
For `CC(C)=CCCC(C)=CC=O` [Citral], the MIC in data set [1] (setting [4]) and in data set [1] (setting [5]) was 250 µg/mL each time.
In the case of Catechins hydrate, the “MIC value (ppm)” value in data set [1] (setting [3]) is recorded as 100 ppm.
As to `CC(C)=CCC[C@](C)(O)[C@@H]1CC=C(C)CC1` [bisabolol, α-(−)-bisabolol], in data set [2] (ethanol), the Solubility in ethanol result was “soluble”. The “Solubility in water and glycerin” value in data set [2] (water and glycerin) was “almost insoluble”.
Consider `Cc1ccc(C(C)C)cc1O` [Carvacrol, carvacrol], for which the MIC in data set [1] (24 h, read-out: MIC value (ppm)) came to 80 µg/mL; in data set [1] (read-out: Individual MIC (concentration of each essential oil alone necessary to produce the same effect)), 80 µg/mL. Further, the “Individual MIC (concentration of each essential oil alone necessary to produce the same effect)” value in data set [1] (Table 3, essential oil alone) is 80 ppm.
As to `CC12CCC(CC1)C(C)(C)O2` [Eucalyptol], the MIC in data set [1] (setting [5]) is 250 µg/mL.
